Experimental data from PMC6039549, “The Sodium Sialic Acid Symporter From Staphylococcus aureus Has Altered Substrate Specificity” (Frontiers in Chemistry, 2018).

Legend:
[1] = molecular target: T1, SaSiaT (sodium sialic acid symporter) (Staphylococcus aureus, UniProt A0A0H2XJ46); assay: isothermal titration calorimetry (n = […]); microscale thermophoresis gives Kd =[…]; proteoliposome transport KM […]; assay type: binding
T1 construct: gene SAUSA300_0314; recombinant SaSiaT, GFP-tag cleaved with HRV3C protease, purified in DDM
T1 sequence (A0A0H2XJ46 entry or part of it): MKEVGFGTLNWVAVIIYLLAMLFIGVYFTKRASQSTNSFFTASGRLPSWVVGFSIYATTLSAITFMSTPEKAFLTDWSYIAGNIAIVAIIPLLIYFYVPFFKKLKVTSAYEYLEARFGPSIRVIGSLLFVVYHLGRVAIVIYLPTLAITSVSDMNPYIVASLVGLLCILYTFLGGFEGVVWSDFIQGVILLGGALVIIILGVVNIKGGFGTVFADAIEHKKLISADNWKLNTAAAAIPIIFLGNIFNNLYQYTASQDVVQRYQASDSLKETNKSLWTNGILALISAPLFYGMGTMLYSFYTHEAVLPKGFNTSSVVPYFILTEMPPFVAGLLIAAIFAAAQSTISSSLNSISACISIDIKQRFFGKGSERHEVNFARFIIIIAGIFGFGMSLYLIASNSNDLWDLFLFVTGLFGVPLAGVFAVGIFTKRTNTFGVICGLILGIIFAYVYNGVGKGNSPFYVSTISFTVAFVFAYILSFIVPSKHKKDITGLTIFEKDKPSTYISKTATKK

[2] = molecular target: T1, SaSiaT (sodium sialic acid symporter); assay: isothermal titration calorimetry (n = […]); microscale thermophoresis gives Kd =[…]; assay type: binding

SMILES | Kd [1] [µM] | Kd [2] [µM]
CC(=O)N[C@H]1[C@H]([C@H](O)[C@H](O)CO)OC(O)(C(=O)O)C[C@@H]1O (some centres unmarked) [Neu5Ac, N-acetylneuraminic acid] | 106 ± 2 | 
O=C(CO)N[C@H]1[C@H]([C@H](O)[C@H](O)CO)O[C@@](O)(C(=O)O)C[C@@H]1O [Neu5Gc, N-glycolylneuraminic acid] |  | 18 ± 2
